From patent US20190223483A1, “SENSORY MODIFIER COMPOUNDS” (CARGILL, INCORPORATED, priority 2017, published 2019) come the findings set out here.

Molecules are shown by their SMILES.

Format in all cases: in vivo
Test [1] can be described thus: Roundtable assessment of spikey/rounded sweetness quality (scale 0 to 3). Set-up: key: 0=none; 1=mostly spikey, some rounded; 2=mostly rounded, some spikey; 3=rounded. As for the experimental part:
(§1) For other sweetness attributes, the solutions were tested by a panel of at least four individuals that are highly-trained in tasting steviol glycoside solutions. The highly-trained panelists used a roundtable methodology to assess each sweetness attribute. To test each solution, the highly-trained panelists dispensed approximately 2 mL of each solution into their own mouths by transfer pipet, dispersed the solution by moving their tongues, and recorded a value for the particular sweetness attribute being tested. Between tasting solutions, the panelists were able to cleanse their palates with water. For each sweetness attribute, the panelist agreed on a descriptive scale with relative intensities assigned for each sweetness attribute and then recorded the values for each sweetness attribute against this. For example, this roundtable assessment of sweetness linger assigned a scale of 0 to 6 with a score of 0 indicating no sweetness linger and a score of 6 indicating extreme sweetness linger. Roundtable assessment of sweetness linger assigned a scale of 0 to 6 with a score of 0 indicating no sweetness linger and a score of 6 indicating extreme sweetness linger (0=none, 1=trace, 2=slight, 3=moderate, 4=definite, 5=strong, 6=extreme). Roundtable assessment of rounded assigned a scale of 0 to 3 with a score of 0 indicating spikey and a score of 3 indicating desirable rounded (0=none, 1=mostly spikey, some rounded, 2=mostly rounded, some spikey, 3=rounded). Roundtable assessment of mouthfeel assigned a scale of 0 to 2 with a score of 0 indicating water and a score of 2 indicating syrupy (0=water, 1=sucrosey, 2=syrupy). Roundtable assessment of bitterness assigned a scale of 0 to 6 with a score of 0 indicating no bitterness and a score of 6 indicating extreme sweetness linger (0=none, 1=trace, 2=slight, 3=moderate, 4=definite, 5=strong, 6=extreme). Roundtable assessment of off tastes assigned a scale of 0 to 6 with a score of 0 indicating no bitterness and a score of 6 indicating extreme off tastes (0=none, 1=trace, 2=slight, 3=moderate, 4=definite, 5=strong, 6=extreme).
A series of assays were carried out to characterize a sweetness quality of a not preferred spikey quality (a zero value) to a more desirable rounded quality (a 3 value) of steviol glycoside compositions with sensory modifier compound using the roundtable methodology described in Example 1. Rounded quality has the sensory experience of being more like sucrose. […] Solutions of steviol glycosides and sensory modifier compound were prepared at increasing ratios of sensory modifier to steviol glycoside by weight. The steviol glycosides were RebA (4 glycoside groups), RebD (5 glycoside groups), RebM (6 glycoside groups), and OPS1-5(7 glycoside groups) and the sensory modifier compound was monocaffeoylquinic and dicaffeoylquinic acids prepared from yerba mate. […] The solutions were tested for spikey/rounded.

Test [2] in a line: Roundtable assessment of bitterness (scale 0 to 6). Set-up: key: 0 = none; 1 = trace/faint; 2 = slight; 3 = moderate; 4 = definite; 5 = strong; 6 = extreme. Here is the method:
as §1
A series of assays were carried out to characterize bitterness (0=none, 1=trace/faint, 2=slight, 3=moderate, 4=definite, 5=strong, 6=extreme) of steviol glycoside compositions with sensory modifier compound using the roundtable methodology described in Example 1. […] Solutions of steviol glycosides and sensory modifier compound were prepared at increasing ratios of sensory modifier to steviol glycoside by weight. The steviol glycosides were RebA (4 glycoside groups), RebD (5 glycoside groups), RebM (6 glycoside groups), and OPS1-5(7 glycoside groups) and the sensory modifier compound was monocaffeoylquinic and dicaffeoylquinic acids prepared from yerba mate. The concentration of steviol glycosides was 700 ppm in each solution. The solutions were tested for bitterness.

A short description of test [3]: Roundtable assessment of astringency. Set-up: key: 0 = none; 1 = trace/faint; 2 = slight; 3 = moderate; 4 = definite; 5 = strong; 6 = extreme.
Description: Solutions of steviol glycosides and sensory modifier compound were prepared at increasing ratios of sensory modifier to steviol glycoside by weight. […] The concentration of steviol glycosides was 700 ppm in each solution. The solutions were tested for astringency.
Test [4] can be described thus: Roundtable assessment of botanical notes (scale 0 to 5). Set-up: key: 0 = none; 1 = trace/faint; 2 = slight; 3 = moderate; 4 = definite; 5 = strong; 6 = extreme. As for the experimental part: as §1
Roundtable assessment of botanical notes assigned a scale of 0 to 5 with a score of 0 indicating no botanical notes and a score of 5 indicating strong (0=none, 1=trace, 2=slight, 3=moderate, 4=definite, 5=strong).
A series of assays were carried out to characterize botanical notes of sensory modifier compound (0=none, 1=trace/faint, 2=slight, 3=moderate, 4=definite, 5=strong) in steviol glycoside compositions using the roundtable methodology described in Example 1. […] Solutions of steviol glycosides and sensory modifier compound were prepared at increasing ratios of sensory modifier to steviol glycoside by weight. […] The concentration of steviol glycosides was 700 ppm in each solution. The solutions were tested for botanical notes.

[5] abbreviates: steviol glycoside 700 ppm + yerba mate mono/dicaffeoylquinic acids 630 ppm.
The mark [6] stands for this setting: steviol glycoside 700 ppm + yerba mate mono/dicaffeoylquinic acids 946 ppm.
Where [7] appears, read: steviol glycoside 700 ppm + yerba mate mono/dicaffeoylquinic acids […].
[8] abbreviates: steviol glycoside 700 ppm, sensory modifier 0 ppm.
The mark [9] stands for this setting: steviol glycoside 700 ppm + yerba mate mono/dicaffeoylquinic acids 270 ppm.
[10] abbreviates: steviol glycoside 700 ppm + yerba mate mono/dicaffeoylquinic acids 540 ppm.
[11] abbreviates: steviol glycoside 700 ppm + yerba mate mono/dicaffeoylquinic acids 810 ppm.

In the case of `C=C1C[C@@]23CC[C@H]4[C@@](C)(CCC[C@@]4(C)C(=O)O[C@@H]4O[C@H](CO)[C@@H](O)[C@H](O)[C@H]4O)[C@@H]2CC[C@]1(O[C@@H]1O[C@H](CO)[C@@H](O)[C@H](O[C@@H]2O[C@H](CO)[C@@H](O)[C@H](O)[C@H]2O)[C@H]1O[C@@H]1O[C@H](CO)[C@@H](O)[C@H](O)[C@H]1O)C3` [RebA, Rebaudioside A], the “Spikey/rounded (spikey = 0) (rounded = 3)” value in test [1] (setting [5]) is listed as “Not observed”; in test [1] (setting [6]), “Not observed”; in test [1] (setting [7]), “Not observed”; in test [1] (setting [8]), 0. The compound further came in with a bitterness score in test [2] (RebA 700 ppm, higher concentrations of sensory modifier) of 3. Further, the Bitterness was 3 in test [2] (setting [5]), 3 in test [2] (setting [6]), 5 in test [2] (setting [7]) and 6 in test [2] (setting [8]). The Astringency in test [3] (setting [5]) is reported as 1; in test [3] (setting [6]), 3; in test [3] (setting [7]), “Not observed”; in test [3] (setting [8]), “Not observed”. The Botanical notes is given as 1 in test [4] (setting [5]), 3 in test [4] (setting [6]), “Not observed” in test [4] (setting [7]) and “Not observed” in test [4] (setting [8]).

On to `C=C1C[C@@]23CC[C@H]4[C@@](C)(CCC[C@@]4(C)C(=O)O[C@@H]4O[C@H](CO)[C@@H](O)[C@H](O)[C@H]4O[C@@H]4O[C@H](CO)[C@@H](O)[C@H](O)[C@H]4O)[C@@H]2CC[C@]1(O[C@@H]1O[C@H](CO)[C@@H](O)[C@H](O[C@@H]2O[C@H](CO)[C@@H](O)[C@H](O)[C@H]2O)[C@H]1O[C@@H]1O[C@H](CO)[C@@H](O)[C@H](O)[C@H]1O)C3` [RebD, Rebaudioside D], for which the “Spikey/rounded (spikey = 0) (rounded = 3)” value in test [1] (setting [9]) is 1; in test [1] (setting [10]) it was 3; in test [1] (setting [11]) it was 3; in test [1] (setting [8]), 2. The Bitterness in test [2] (setting [9]), in test [2] (setting [10]), in test [2] (setting [11]) and in test [2] (setting [8]) was 0 throughout. Moreover, the Astringency in test [3] (setting [9]) is on record as 2; in test [3] (setting [10]), 1; in test [3] (setting [11]), 2; in test [3] (setting [8]) it was “Not observed”. The Botanical notes result in test [4] (Reb D 700 ppm, 0 ppm to about 500 ppm sensory modifier) is recorded as “no perceptible botanical notes”; in test [4] (Reb D 700 ppm, about 800 ppm sensory modifier), “slight”; in test [4] (setting [9]) it was 0; in test [4] (setting [10]), 0; in test [4] (setting [11]), 2; in test [4] (setting [8]) it was “Not observed”.
